Data from patent publication EP1263429B1, “ANTIVIRAL THERAPY” (Universiteit Utrecht, priority 2000, dated 2001).

Tested on: HIV-1Ba-L
Experiment: HIV-1 replication in acutely infected monocyte-derived macrophages (MDM), p24-core antigen ELISA
Type: cell-based
Description: PBMC are isolated from heparinized blood from HIV-1-, HIV-2-, and hepatitis B-seronegative donors and obtained on Ficoll-Hypaque density gradients. Cells are washed twice and monocytes are purified by countercurrent centrifugal elutriation. Cells are >98% monocytes by criteria of cell morphology on May-Grünwald-Giemsa-stained cytosmears and by nonspecific esterase staining using alpha-naphtylacetate (Sigma Chemical Co., St. Louis, MO) as substrate. Monocytes are cultured in suspension at a concentration of 2 x 10^6 cells/ml in Teflon flasks (Nalgene, Rochester, NY) in Iscove's modified Dulbeco's medium (IMDM) with 10% heat-inactivated human AB serum negative for anti-HIV antibodies, […], and […] (Sigma) for 7 days.
HIV-1 strain Ba-L is grown to high titer in MDM. The 50% tissue culture infectious dose (TCID50) of the virus stock is determined by endpoint dilution with serial fourfold dilutions in a 96-well microtiter plate on MDM. […] The TCID50 of the virus stock is determined by endpoint dilution with serial fourfold dilutions in a 96-well microtiter plate on PBMC.
MDM, and PBMC, were incubated with HIV at a multiplicity of infection of 0.02, and 0.006 or 0.001, respectively. […] The presence of HIV-1 in the inactivated supernatant is monitored by checking for the p24-core antigen using the enzyme-linked immunosorbent assay (ELISA) system of John Moore. […]

Compound: CCCCC#CCSc1ccccc1OC(C)=O [APHS, o-(acetoxy-phenyl)hept-2-ynyl sulphide]
- APHS concentrations that inhibit p24 production by acutely infected MDM (96 h): above 3 :M
- inhibition at 30 µM (Human immunodeficiency virus 1, Macrophage, 30 µM APHS, Fig 2, MDM, multiplicity of infection 0.02): 88%
